Activity calls are given as the source filed them.
Key:
Protein skinhead-1 = target: T1, Protein skinhead-1 (Caenorhabditis elegans, UniProt P34707); format: functional
T1 sequence (P34707 whole entry): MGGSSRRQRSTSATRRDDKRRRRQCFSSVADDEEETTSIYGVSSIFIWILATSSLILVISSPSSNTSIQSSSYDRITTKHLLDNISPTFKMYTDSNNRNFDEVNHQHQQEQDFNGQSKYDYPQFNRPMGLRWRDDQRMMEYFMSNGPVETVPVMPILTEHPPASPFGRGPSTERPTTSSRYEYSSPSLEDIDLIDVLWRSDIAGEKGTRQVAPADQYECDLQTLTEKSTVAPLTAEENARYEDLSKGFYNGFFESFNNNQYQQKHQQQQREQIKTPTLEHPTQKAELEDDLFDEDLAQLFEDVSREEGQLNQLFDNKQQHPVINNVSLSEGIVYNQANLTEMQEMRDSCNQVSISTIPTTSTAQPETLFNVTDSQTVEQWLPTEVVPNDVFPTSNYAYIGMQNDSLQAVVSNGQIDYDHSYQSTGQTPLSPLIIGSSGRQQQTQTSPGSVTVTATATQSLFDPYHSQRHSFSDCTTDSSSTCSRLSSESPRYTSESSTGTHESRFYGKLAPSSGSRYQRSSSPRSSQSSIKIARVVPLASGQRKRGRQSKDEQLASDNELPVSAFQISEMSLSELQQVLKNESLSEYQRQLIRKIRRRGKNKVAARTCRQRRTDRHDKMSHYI

[1] = target: Induced myeloid leukemia cell differentiation protein Mcl-1 (Homo sapiens, UniProt Q07820); format: functional
Cytochrome P450 2C19 = Cytochrome P450 2C19 (Homo sapiens, UniProt P33261); experiment: Cytochrome panel assay with activity outcomes. Panel member name: p450-cyp2c19 Compounds with AC50 equal or less than 10 uM are considered active; format: functional; settings: read-out: AC50
Cytochrome P450 2C9 = Cytochrome P450 2C9 (Homo sapiens, UniProt P11712)
Aminopeptidase N = target: T2, Aminopeptidase N (Plasmodium falciparum FcB1/Columbia, UniProt O96935); experiment: malaria alanyl aminopeptidase activity blockers – biochemical, fluorogenic H-Leu-NHMec substrate, 1536-well (AID 1445); design: species or system Plasmodium falciparum 3D7, 3D7
T2 sequence (O96935 whole entry): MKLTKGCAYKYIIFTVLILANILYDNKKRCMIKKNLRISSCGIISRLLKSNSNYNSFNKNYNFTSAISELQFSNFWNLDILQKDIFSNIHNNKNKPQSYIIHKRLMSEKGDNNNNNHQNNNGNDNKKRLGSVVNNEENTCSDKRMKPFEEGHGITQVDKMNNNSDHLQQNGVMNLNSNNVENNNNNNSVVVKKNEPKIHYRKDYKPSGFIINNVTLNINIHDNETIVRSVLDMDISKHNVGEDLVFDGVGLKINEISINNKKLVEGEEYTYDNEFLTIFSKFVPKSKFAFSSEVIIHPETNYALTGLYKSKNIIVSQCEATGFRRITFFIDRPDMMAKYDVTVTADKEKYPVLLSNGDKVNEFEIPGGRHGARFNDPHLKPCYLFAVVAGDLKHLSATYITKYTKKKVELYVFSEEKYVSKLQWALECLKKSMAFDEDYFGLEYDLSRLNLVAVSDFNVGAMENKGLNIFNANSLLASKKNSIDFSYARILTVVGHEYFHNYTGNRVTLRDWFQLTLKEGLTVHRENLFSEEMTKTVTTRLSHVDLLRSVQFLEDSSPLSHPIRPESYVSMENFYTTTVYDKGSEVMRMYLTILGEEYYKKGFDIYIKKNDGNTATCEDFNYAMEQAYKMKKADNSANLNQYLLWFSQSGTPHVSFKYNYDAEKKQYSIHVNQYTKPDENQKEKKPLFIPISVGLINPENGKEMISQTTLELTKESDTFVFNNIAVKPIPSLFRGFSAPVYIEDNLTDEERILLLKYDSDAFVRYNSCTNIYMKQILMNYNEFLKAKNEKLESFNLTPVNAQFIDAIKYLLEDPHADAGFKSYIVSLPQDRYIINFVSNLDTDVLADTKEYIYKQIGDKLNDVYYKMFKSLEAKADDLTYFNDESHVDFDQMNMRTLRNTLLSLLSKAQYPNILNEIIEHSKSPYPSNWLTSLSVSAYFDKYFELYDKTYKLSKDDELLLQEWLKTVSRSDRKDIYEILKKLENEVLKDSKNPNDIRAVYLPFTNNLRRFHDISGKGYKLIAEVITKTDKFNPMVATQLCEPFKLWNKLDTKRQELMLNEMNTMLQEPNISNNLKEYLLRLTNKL

Large T antigen = Large T antigen (Simian virus 40, UniProt P03070); format: functional, Betapolyomavirus macacae;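 note: Confirmatory-stage PubChem screen for compounds that inhibit SV40 T antigen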
[2] = intracellular Trypanosoma cruzi inhibitors in host cells – cell-based, plate reader, cherry-pick samples, set 3, dose response (AID 651818); format: functional;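 note: compounds incubated with infected cells for about four days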
[3] = blockers of HIV-1 envelope-mediated cell-cell fusion – cherry-pick, dose response (AID 652057); format: functional, cell-based
[4] = blockers of HIV-1 ZM109 envelope-driven cell-cell fusion – HeLa effector, CEM target cells, luciferase, cherry-pick, dose response (AID 652058); format: functional, cell-based;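 note: luciferase signal from HIV-1 Env mediated cell-cell fusion of effector and target cells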
[5] = off-target signal loss in HeLa-CEM21 co-culture – HeLa F-luc CTL cells, cherry-picked, counter-screen for HIV-1 Env fusion inhibitor project, dose response (AID 652040); format: functional, cell-based;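 note: potency for signal decrease marking cytotoxic or nonspecific inhibition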
[6] = HIV-1 AD8 envelope cell-cell fusion blockers – cherry-pick, dose response (AID 652062); format: functional, cell-based;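 note: luciferase signal from cell-cell fusion driven by HIV-1 clade B AD8 Env; potency is for inhibitors of fusion seen as a drop in luminescence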
[7] = viability of uninfected HEp-2 cells – cell-based, HTS, cytotoxicity control for RSV inhibitor project, dose response (AID 2410); format: functional; settings: human respiratory syncytial virus
BJ [8] = experiment: BJ-TERT fibroblast viability loss – cell-based, RAS-independent, luminescence, dose response (AID 1933); format: functional; settings: Homo sapiens
[9] = target: T3, Heat shock factor protein 1 (Mus musculus, UniProt P38532); experiment: decrease of HSF1-responsive luciferase luminescence – cell-based, NIH3T3, dose retest, confirmation (AID 2382); format: functional;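 note: NIH3T3 fibroblasts with HSF1-driven luciferase reporter stressed by proteasome inhibitor MG132; luminescence from HSF1-driven luciferase expression after 8 hours of MG132 stress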
T3 sequence (P38532 whole entry): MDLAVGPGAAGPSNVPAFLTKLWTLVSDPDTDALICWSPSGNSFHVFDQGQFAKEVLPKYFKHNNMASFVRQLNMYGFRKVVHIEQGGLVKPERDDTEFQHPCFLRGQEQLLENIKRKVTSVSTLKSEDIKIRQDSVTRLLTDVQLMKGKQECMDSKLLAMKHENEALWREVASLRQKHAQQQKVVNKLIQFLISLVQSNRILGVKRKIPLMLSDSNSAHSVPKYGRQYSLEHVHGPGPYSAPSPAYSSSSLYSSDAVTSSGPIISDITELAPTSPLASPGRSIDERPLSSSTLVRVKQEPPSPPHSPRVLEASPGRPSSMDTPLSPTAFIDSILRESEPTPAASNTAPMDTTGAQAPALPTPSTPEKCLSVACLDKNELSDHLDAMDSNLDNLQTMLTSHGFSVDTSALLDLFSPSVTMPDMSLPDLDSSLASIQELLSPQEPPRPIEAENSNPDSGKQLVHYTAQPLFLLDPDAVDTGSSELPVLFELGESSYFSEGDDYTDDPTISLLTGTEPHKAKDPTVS

BJ [10] = experiment: cells; format: functional, cell-based; settings: Homo sapiens
BJ [11] = experiment: BJ-TERT-LT-ST fibroblast viability loss – cell-based, RAS-independent, luminescence, dose response (AID 1935); format: functional; settings: Homo sapiens;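 note: BJ fibroblasts immortalized with TERT plus LT and ST oncogenes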
[12] = DRD fibroblast viability loss – cell-based, non-viral oncogenic, luminescence, dose response (AID 1934); format: functional; settings: Homo sapiens
[13] = target: Heat shock protein HSP 90-alpha (Homo sapiens, UniProt P07900); format: functional, organism-based
Vero = experiment: cells; format: functional; settings: Chlorocebus sabaeus
Paired box protein Pax-8 = Paired box protein Pax-8 (Homo sapiens, UniProt Q06710); experiment: PAX8 transcriptional activity inhibition in RMG-I – RMG-I cells, luciferase, cherry-pick, dose response (AID 687027); format: functional, cell-based;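 note: luciferase reporter driven by Pax8 target thyroperoxidase promoter measured by SteadyGlo luminescence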
[14] = activation of miR-122 Renilla sensor silencing – cell-based, Huh7 psiCHECK-miR122, Renilla luciferase, cherry-picked, dose response (AID 651956); format: functional;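 note: huh7 hepatoma cells stably carrying a psiCHECK-2 miR-122 sensor plasmid; renilla luciferase signal reporting endogenous miR-122 activity after 48 h compound exposure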
[15] = Luminescence Cell-Based Dose Retest to Confirm Inhibitors of Cancer Stem Cells. [Related pubchem assays (depositor defined):AID2717, AID2721]; format: functional; settings: Homo sapiens

Sequence of Induced myeloid leukemia cell differentiation protein Mcl-1 (Q07820 whole entry): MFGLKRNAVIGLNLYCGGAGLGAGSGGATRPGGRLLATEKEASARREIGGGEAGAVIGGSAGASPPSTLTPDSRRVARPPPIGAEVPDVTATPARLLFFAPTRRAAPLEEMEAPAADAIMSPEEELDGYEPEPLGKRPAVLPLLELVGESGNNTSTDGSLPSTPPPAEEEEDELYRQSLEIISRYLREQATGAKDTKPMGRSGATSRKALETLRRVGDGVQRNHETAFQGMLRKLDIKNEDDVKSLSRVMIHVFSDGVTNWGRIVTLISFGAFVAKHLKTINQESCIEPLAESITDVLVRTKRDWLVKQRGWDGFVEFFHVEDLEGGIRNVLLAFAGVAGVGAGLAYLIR
Sequence of Cytochrome P450 2C19 (P33261 whole entry): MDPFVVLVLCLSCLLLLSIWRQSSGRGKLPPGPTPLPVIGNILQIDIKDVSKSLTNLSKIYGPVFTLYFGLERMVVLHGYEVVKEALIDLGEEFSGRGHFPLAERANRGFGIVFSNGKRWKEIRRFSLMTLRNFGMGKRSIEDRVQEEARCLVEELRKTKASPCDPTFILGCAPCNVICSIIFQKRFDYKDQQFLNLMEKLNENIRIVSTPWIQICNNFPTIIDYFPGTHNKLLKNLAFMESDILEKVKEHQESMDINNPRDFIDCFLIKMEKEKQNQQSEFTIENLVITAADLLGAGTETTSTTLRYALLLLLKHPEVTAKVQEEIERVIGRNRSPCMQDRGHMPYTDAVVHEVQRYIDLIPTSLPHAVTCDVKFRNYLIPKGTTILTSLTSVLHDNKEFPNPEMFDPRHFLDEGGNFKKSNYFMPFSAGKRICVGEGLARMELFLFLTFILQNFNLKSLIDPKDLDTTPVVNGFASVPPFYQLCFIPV
Sequence of Large T antigen (P03070 whole entry): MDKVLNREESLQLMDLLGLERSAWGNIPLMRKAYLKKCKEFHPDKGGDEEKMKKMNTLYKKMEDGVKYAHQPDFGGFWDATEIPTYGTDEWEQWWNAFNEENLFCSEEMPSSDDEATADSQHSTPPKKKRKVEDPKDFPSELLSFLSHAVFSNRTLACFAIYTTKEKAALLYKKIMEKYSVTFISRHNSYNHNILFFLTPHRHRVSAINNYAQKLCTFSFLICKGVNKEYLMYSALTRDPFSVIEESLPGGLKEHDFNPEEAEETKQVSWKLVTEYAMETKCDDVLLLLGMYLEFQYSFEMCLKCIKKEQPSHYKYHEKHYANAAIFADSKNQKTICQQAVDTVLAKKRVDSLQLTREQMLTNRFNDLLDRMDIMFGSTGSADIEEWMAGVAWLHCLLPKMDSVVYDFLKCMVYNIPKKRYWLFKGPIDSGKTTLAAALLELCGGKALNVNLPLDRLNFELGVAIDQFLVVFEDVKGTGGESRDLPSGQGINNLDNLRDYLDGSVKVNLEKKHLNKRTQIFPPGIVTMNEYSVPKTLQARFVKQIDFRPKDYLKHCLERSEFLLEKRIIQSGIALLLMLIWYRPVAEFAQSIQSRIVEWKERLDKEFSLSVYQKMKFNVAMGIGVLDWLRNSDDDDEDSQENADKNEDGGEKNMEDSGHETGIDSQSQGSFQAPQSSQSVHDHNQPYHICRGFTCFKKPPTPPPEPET
Sequence of Cytochrome P450 2C9 (P11712 whole entry): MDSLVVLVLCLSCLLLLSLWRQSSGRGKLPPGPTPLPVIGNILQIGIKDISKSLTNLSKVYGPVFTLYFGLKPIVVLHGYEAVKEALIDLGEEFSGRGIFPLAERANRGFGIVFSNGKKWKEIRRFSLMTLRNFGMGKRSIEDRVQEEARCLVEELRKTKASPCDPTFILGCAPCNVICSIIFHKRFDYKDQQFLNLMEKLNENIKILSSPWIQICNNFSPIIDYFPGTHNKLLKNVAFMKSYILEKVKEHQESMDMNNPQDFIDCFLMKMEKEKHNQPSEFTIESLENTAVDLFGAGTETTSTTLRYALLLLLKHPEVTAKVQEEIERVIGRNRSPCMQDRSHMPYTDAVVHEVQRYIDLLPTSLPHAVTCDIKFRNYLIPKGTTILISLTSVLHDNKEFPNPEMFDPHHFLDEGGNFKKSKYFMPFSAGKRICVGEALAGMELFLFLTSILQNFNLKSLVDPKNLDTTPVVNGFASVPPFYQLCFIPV
Sequence of Paired box protein Pax-8 (Q06710 whole entry): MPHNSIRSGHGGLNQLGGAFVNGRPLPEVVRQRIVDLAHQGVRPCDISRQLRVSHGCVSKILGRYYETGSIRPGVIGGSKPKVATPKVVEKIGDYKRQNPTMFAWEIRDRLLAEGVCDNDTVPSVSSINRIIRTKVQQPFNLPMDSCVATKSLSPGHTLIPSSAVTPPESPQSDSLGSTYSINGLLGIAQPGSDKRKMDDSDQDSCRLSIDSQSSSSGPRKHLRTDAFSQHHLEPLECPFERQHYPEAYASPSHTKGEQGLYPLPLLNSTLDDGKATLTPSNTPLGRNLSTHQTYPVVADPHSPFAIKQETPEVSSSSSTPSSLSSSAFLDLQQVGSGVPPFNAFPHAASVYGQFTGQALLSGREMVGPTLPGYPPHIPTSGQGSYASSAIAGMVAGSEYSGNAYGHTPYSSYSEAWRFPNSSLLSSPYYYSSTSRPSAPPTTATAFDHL

Structure (SMILES): CCOC(=O)c1c(C)c(C)n2c1NC(=O)C2
- IC50 (Protein skinhead-1): > 100 µM (inactive)

Structure (SMILES): COc1ccccc1Nc1nc(-c2sc(NC(=O)c3ccc([N+](=O)[O-])cc3)nc2C)cs1
- IC50 [1]: 0.449 µM (active)
- AC50 (Cytochrome P450 2C19): 1.58 µM (inconclusive)
- AC50 (Cytochrome P450 2C9): 3.55 µM (inconclusive)

Structure (SMILES): CCOc1cc(/C=C2/C(=N)N3N=C(c4ccccc4)SC3=NC2=O)ccc1O
- IC50 (Aminopeptidase N): 30.1 µM (active)
- IC50 (Large T antigen): 10.2 µM (active)
- IC50 [1]: 3.61 µM (active)

Structure (SMILES): C[C@@H]1CN([C@H](C)CO)C(=O)Cc2cc(NC(=O)Cc3ccccc3)ccc2O[C@@H]1CN(C)Cc1ccc(Cl)c(Cl)c1
- AC50 [2]: 2.51 µM (active)

Structure (SMILES): C[C@H]1CN([C@@H](C)CO)C(=O)Cc2cc(NC(=O)c3ccncc3)ccc2O[C@H]1CN(C)Cc1ccc(-c2ccccc2)cc1
- AC50 [2]: 1.63 µM (active)

Structure (SMILES): O=C1[C@H]2[C@@H](C3CC3)N3C(=O)CN(CC4CC4)C(=O)[C@@]3(Cc3ccccc3)[C@H]2C(=O)N1c1ccccc1
- AC50 [3]: 1.76 µM (active)
- AC50 [4]: 3.84 µM (active)
- AC50 [5]: 3.51 µM (active)
- AC50 [6]: 1.69 µM (active)

Structure (SMILES): C[C@H]1CN([C@@H](C)CO)C(=O)Cc2cc(NC(=O)C3CC3)ccc2O[C@@H]1CN(C)Cc1ccc(C(=O)Nc2ccccc2N)cc1
- AC50 [2]: 3.59 µM (active)

Structure (SMILES): Clc1ccc2c(c1)c1cc(Cl)ccc1n2CN1CCOCC1
- CC50 [7]: 17.9 µM (active)
- IC50 (Protein skinhead-1): 74.5 µM (inactive)

Structure (SMILES): S=C1SCN(Cc2cccnc2)CN1Cc1cccnc1
- EC50 (BJ [8]): 2.48 µM (active)
- EC50 [9]: > 195 µM (not active)
- EC50 (BJ [10]): 4.49 µM (active)
- EC50 (BJ [11]): 26.1 µM (active)
- EC50 [12]: 8.06 µM (inconclusive)
- AC50 [13]: 4.53 µM (active)
- CC50 (Vero): 10.4 µM (active)
- AC50 (Paired box protein Pax-8): 3.62 µM (active)

Structure (SMILES): O=C(NCc1nc2ccccc2[nH]1)C1=C[C@H](C2CCCCC2)C[C@H](OCc2ccc(CO)cc2)O1
- CC50 (Vero): 16.1 µM (active)
- IC50 (Protein skinhead-1): > 100 µM (inactive)

Structure (SMILES): Cc1ccc(S(=O)(=O)Nc2ccc3c(c2)CC(=O)N([C@@H](C)CO)C[C@@H](C)[C@@H](CN(C)Cc2ccc(C(F)(F)F)cc2)O3)cc1
- AC50 [2]: 2.03 µM (active)

Structure (SMILES): C[C@H]1CN([C@@H](C)CO)C(=O)c2cccc(NC(=O)Nc3cccc4ccccc34)c2O[C@H]1CN(C)Cc1ccc(C(=O)Nc2ccccc2N)cc1
- AC50 [2]: 3.59 µM (active)

Structure (SMILES): Cc1nc(Oc2ccccc2)c2oc3ccccc3c2n1
- IC50 (Protein skinhead-1): > 100 µM (inactive)

Structure (SMILES): C/C=C/c1ccc([C@H]2[C@@H](CO)N(Cc3ccccn3)[C@H]2CNC(=O)CC)cc1
- AC50 [14]: 53.3 µM (active)

Structure (SMILES): CC[C@]1(C(=O)OC)[C@H]2C(=O)N(Cc3ccccc3)C(=O)[C@H]2[C@H]2CN=C(SCc3ccc(C)cc3)N21
- AC50 [3]: 2.43 µM (active)
- AC50 [4]: 1.56 µM (active)
- AC50 [5]: 3.14 µM (active)
- AC50 [6]: 3.41 µM (active)

Structure (SMILES): C[C@@H]1CN([C@H](C)CO)C(=O)Cc2cc(N(C)C)ccc2O[C@H]1CN(C)Cc1ccc2c(c1)OCO2
- AC50 [2]: 6.22 µM (active)

Structure (SMILES): Cc1ccc2c(c1)[C@H]1[C@H](CO2)[C@H](c2ccccc2)[C@]2(C)C(=O)N(CC3CCCO3)CC(=O)N12 (some centres not stated)
- AC50 [3]: 2.63 µM (active)
- AC50 [4]: 2.05 µM (active)
- AC50 [5]: 4.49 µM (active)
- AC50 [6]: 9.2 µM (active)

Structure (SMILES): C[C@@H]1CN([C@H](C)CO)C(=O)c2cccc(NS(=O)(=O)c3cccs3)c2O[C@@H]1CN(C)Cc1ccc(C(F)(F)F)cc1
- AC50 [3]: < 0.26 µM (active)
- AC50 [4]: < 0.26 µM (active)
- AC50 [6]: 2.1 µM (active)

Structure (SMILES): COc1cc(NC(=O)c2csc(N)n2)cc(C(=O)Nc2cccc(C(F)(F)F)c2)c1
- EC50 (BJ [8]): 8.47 µM (inconclusive)
- EC50 (BJ [10]): 52.4 µM (inconclusive)
- EC50 (BJ [11]): 111 µM (active)
- EC50 [12]: 4.71 µM (active)
- AC50 [15]: 2.19 µM (active)

Structure (SMILES): O=C(/C=C/c1ccc(Cl)cc1)Nc1ccc(CN2CCOCC2)cc1
- IC50 (Protein skinhead-1): 14.3 µM (active)

Structure (SMILES): COc1ccc(/C=C/C(=O)c2nc3ccccc3n2CC(=O)c2ccc(OC)cc2)cc1
- IC50 (Protein skinhead-1): > 100 µM (inactive)

Structure (SMILES): C[C@H](CO)N1C[C@H](C)[C@H](CN(C)S(=O)(=O)c2ccccc2)Oc2ccc(NC(=O)Nc3ccc(C(F)(F)F)cc3)cc2C1=O
- AC50 [2]: 1.62 µM (active)

Structure (SMILES): COc1ccc(NC2CC(=O)N(CCc3ccccc3)C2=O)cc1 (configuration not stated)
- IC50 (Protein skinhead-1): > 100 µM (inactive)

Structure (SMILES): COc1ccc(C(=O)C2CCCN(Cc3cccn3-c3ccccn3)C2)c(OC)c1 (configuration not stated)
- AC50 [14]: 21.8 µM (active)

Source: ChEMBL document CHEMBL1201862, “PubChem BioAssay data set” (2004)
